Where two headings read alike, the source gives them in different places.
Tests used:
[1] = system: c-Src 3T3 cells; experiment: BrdU cell growth inhibition, c-Src 3T3; assay type: cell-based, mouse; details: for activity at 0.1 µM / activity at 1 µM / activity at 10 µM: NIH3T3, read-out: c-Src 3T3 Growth, % of Control Mean, n = 3; for activity at 0.1 µM: 100 nM; for GI50: c-Src 3T3 (c-Src527F/NIH3T3) cells
Protocol: (§1) The GI50s for several of the compounds of the invention were assayed as described herein.
The cells were routinely cultured in DMEM supplemented with Fetal Bovine Serum (2.0% v/V), L-glutamine (2 mM) and Sodium Pyruvate (1 mM).
(§2) In the BrdU Assay for cell growth inhibition, quantitation of cell proliferation was based on the measurement of BrdU incorporation during DNA synthesis. The Cell Proliferation ELISA BrdU assay kit (colorimetric) was obtained from Roche Applied Science and performed as per vendor instructions.
(§3) The growth inhibition (GI) is determined from the formula GI=(T0−Tn×100/T0−CONn) where T0 is the BrdU growth of untreated cells at time “0”, Tn is the BrdU growth of treated cells at day “n” and CONn is the control BrdU growth of control cells at day “n”. The GI50 was extrapolated and the data plotted using XL-Fit 4.0 software.
(§4) For 96 well culture plate experiments, c-Src 3T3 medium was supplemented with 10 mM HEPES buffer. HT-29 cells were seeded in standard tissue culture 96-well plates and c-Src 3T3 cells were seeded in 96-well plates coated with Poly-D-lysine (BIOCOAT™). To increase CO2 diffusion, c-Src 3T3 96-well plates were incubated with their lids raised by ˜2 mm using sterile rubber caps.
(§5) Samples were reconstituted in DMSO at 20 mM and intermediate dilutions made using DMEM containing 10% FBS. […] Plates were assayed for BrdU and the data analyzed as above for GI50.
(§6) All compounds were initially prepared as 20 mM DMSO stock solutions and then diluted into buffer for the in vitro tumor growth assays. NG means no cell growth beyond the control and T means the number of cells in the drug treated wells was less than in the control (i.e. net cell loss).

[2] = system: HT29 cell line; experiment: BrdU cell growth inhibition, HT29; assay type: cell-based, human; details: for activity at 0.05 µM / activity at 0.5 µM / activity at 5 µM: HT-29, read-out: HT-29 Growth, % of Control Mean, n = 3; for activity at 0.05 µM: 50 nM; for activity at 0.5 µM: 500 nM
Protocol: as §1
The HT29 cell line is a NCI standard human colon carcinoma cell line.
as §2, §3, §4, §5, §6
Growth Inhibition. […] T1 values≤T0 values were designated as T, cytotoxicity.

[3] = Homo sapiens, HT-29, HT29 (Colon) cells, read-out: GI50

Row | Compound | activity at 0.1 µM ([1]; Mus musculus) [%] | activity at 1 µM ([1]; Mus musculus) [%] | activity at 10 µM ([1]; Mus musculus) [%] | GI50 ([1]; Mus musculus, read-out: GI50) [nM] | GI50 [2, 3] [nM] | activity at 0.05 µM ([2]; Homo sapiens) [%] | activity at 0.5 µM ([2]; Homo sapiens) [%] | activity at 5 µM ([2]; Homo sapiens) [%] | GI50 ([2]; HT29 (Colon) cells) | GI50 [1]
1 | O=C(Cc1ccc(-c2ccc(N3CCCCC3)cc2)cn1)NCc1cccc(F)c1 [KX2-372] | < 0 | < 0 | < 0 | 58 | 67 | < 0 | < 0 | < 0 | – | –
2 | CN1CCN(CCOc2cc(OC3CCOCC3)c3c(Nc4c(Cl)ccc5c4OCO5)ncnc3c2)CC1 [AZD0530, reference compound] | – | – | – | 203 | 330 | – | – | – | – | –
3 | CC(C)COc1cc(F)cc(CNC(=O)Cc2ccc(-c3ccc(CN4CCOCC4)cc3)cn2)c1 [KX2-363] | 92 | 70 | 100 | – | – | 92 | 67 | < 0 | – | –
4 | O=C(Cc1ccc(-c2ccc(F)cc2)cc1)NCc1cccc(F)c1 [KX1-311, N-(3-fluorobenzyl)-4-(4-fluorophenyl)phenylacetamide] | 81.3 | < 0 | < 0 | – | – | 60.4 | < 0 | < 0 | – | –
5 | CCOc1ccc(-c2ccc(CC(=O)NCc3cc(F)cc(OCCN4CCOCC4)c3)nc2)cc1 [KX2-378] | 122 | 107 | 48 | – | – | 88 | 61 | < 0 | – | –
6 | CCOc1ccc(-c2ccc(CC(=O)NCc3cccc(F)c3)nc2)c(OCCN2CCN(C)CC2)c1 [KX2-384] | – | – | – | 1430 | – | – | – | – | inactive | –
7 | CCOc1ccc(-c2ccc(CC(=O)NCc3cc(F)cc(N4CCCCC4)c3)nc2)cc1 [KX2-379] | 106 | 104 | < 0 | – | – | 89 | 88 | < 0 | – | –
8 | CN1CCN(CCCOc2ccc(-c3ccc(CC(=O)NCc4cccc(F)c4)nc3)cc2)CC1 [KX2-390] | – | – | – | 797 | 868 | – | – | – | – | –
9 | CN1CCN(CCOc2ccc(-c3ccc(CC(=O)NCc4cccc(F)c4)nc3)cc2)CC1 [KX2-365] | 88 | < 0 | < 0 | 133 | 93 | 88 | < 0 | < 0 | – | –
10 | O=C(Cc1ccc(-c2ccccc2F)cc1)NCc1cccc(F)c1 [KX1-309] | < 0 | < 0 | < 0 | – | – | 29.5 | < 0 | < 0 | – | –
11 | O=C(Cc1ccc(-c2ccccc2)c(F)c1)NCc1cccc(F)c1 [KX1-319, N-(3-Fluoro-benzyl)-2-(2-fluoro-biphenyl-4-yl)-acetamide] | 88.2 | < 0 | < 0 | – | – | 101 | < 0 | < 0 | – | –
12 | O=C(Cc1ccc(-c2ccccc2)c[n+]1[O-])NCc1cccc(F)c1 [KX1-329 N-oxide] | – | – | – | – | – | – | – | – | inactive (c-Src 3T3); inactive (HT-29) | inactive (c-Src 3T3); inactive (HT-29)
13 | O=C(Cc1ccc(-c2cccnc2)cc1)NCc1cccc(F)c1 [KX1-316] | 88.2 | < 0 | < 0 | > 200 | – | 77.8 | 45.1 | < 0 | – | –
14 | O=C(Cc1ccc(-c2ccc(CN3CCOCC3)cc2)cn1)NCc1cccc(F)c1 [KX2-362] | 101 | < 0 | < 0 | 56 | 56 | 86 | < 0 | < 0 | – | –
15 | CCOc1ccc(-c2ccc(CC(=O)NCc3cc(F)cc(OCC4CCN(C)CC4)c3)nc2)cc1 [KX2-381] | 116 | < 0 | < 0 | 914 | 375 | 58 | < 0 | < 0 | – | –
16 | CN(Cc1cccc(F)c1)C(=O)Cc1ccc(-c2ccccc2)cc1 [KX1-312, N-(3-fluorobenzyl)-N-methyl-4-biphenylacetamide] | 98.5 | 94.5 | 12.1 | – | – | 93.7 | 67.6 | 33.7 | – | –
17 | CCOc1ccc(-c2ccc(CC(=O)NCc3cc(F)cc(OCC(C)C)c3)nc2)cc1 [KX2-368] | 99 | 101 | 27 | – | – | 107 | 70 | < 0 | – | –
18 | O=C(Cc1ccc(-c2ccc(OCCN3CCCCC3)cc2)cn1)NCc1cccc(F)c1 [KX2-375] | < 0 | < 0 | < 0 | 206 | 354 | 99 | < 0 | < 0 | – | –
19 | CCOc1ccc(-c2ccc(CC(=O)NCc3cccc(F)c3)cn2)cc1 [KX1-325, 2-[6-(4-Ethoxy-phenyl)-pyridin-3-yl]-N-(3-fluoro-benzyl)-acetamide] | 97.6 | 54.2 | < 0 | 207 | 215 | 85 | < 0 | < 0 | – | –
20 | O=C(Cc1ccc(-c2ccc(CN3CCCCC3)cc2)cn1)NCc1cccc(F)c1 [KX2-364] | 92 | 81 | < 0 | – | – | 105 | 80 | < 0 | – | –
21 | CN1CCN(Cc2ccc(-c3ccc(CC(=O)NCc4cccc(F)c4)nc3)cc2)CC1 [KX2-376] | < 0 | < 0 | < 0 | > 1600 | > 400 | 96 | 93 | < 0 | – | –
22 | O=C(Cc1ccc(-c2ccc(F)cc2)nc1)NCc1cccc(F)c1 [KX1-320, N-(3-Fluoro-benzyl)-2-[6-(4-fluoro-phenyl)-pyridin-3-yl]-acetamide] | 90.4 | 86.5 | 73.1 | – | – | 111 | 132 | 86.2 | – | –
23 | CCOc1ccc(-c2ccc(CC(=O)NCc3cc(F)cc(OCCN4CCCCC4)c3)nc2)cc1 [KX2-380] | 124 | 119 | < 0 | – | – | 100 | 50 | < 0 | – | –
24 | O=C(Cc1ccc(-c2cccc(Cl)c2)nc1)NCc1cccc(F)c1 [KX1-317, 2-[6-(3-Chloro-phenyl)-pyridin-3-yl]-N-(3-fluoro-benzyl)-acetamide] | 94.2 | 85.6 | < 0 | – | – | 83.5 | 64 | < 0 | – | –
25 | CC(C)COc1cc(F)cc(CNC(=O)Cc2ccc(-c3ccc(CN4CCCCC4)cc3)cn2)c1 [KX2-366] | 103 | 83 | < 0 | – | – | 89 | 54 | < 0 | – | –
26 | O=C(Cc1ccc(-c2ccc(CN3CCOCC3)cc2F)cn1)NCc1cccc(F)c1 [KX2-393] | – | – | – | 24 | 52 | – | – | – | – | –
27 | CN1CCN(c2ccc(-c3ccc(CC(=O)NCc4cccc(F)c4)nc3)cc2)CC1 [KX2-373] | 97 | < 0 | < 0 | 96 | 639 | 64 | < 0 | < 0 | – | –
28 | CCOc1ccc(-c2ccc(CC(=O)NCc3cc(F)cc(N4CCOCC4)c3)nc2)cc1 [KX2-382] | 117 | 114 | 103 | – | – | 80 | 97 | 50 | – | –
29 | CC(C)COc1cc(F)cc(CNC(=O)Cc2ccc(-c3ccc(OCCN4CCN(C)CC4)cc3)cn2)c1 [KX2-367] | 102 | < 0 | < 0 | – | – | 64 | 6 | < 0 | – | –

— patent publication US10196357B2, “Biaryl compositions and methods for modulating a kinase cascade” (Athenex, Inc., priority 2007, dated 2019)
